Laboratory results from paper PMC5071857, “A unique peptide deformylase platform to rationally design and challenge novel active compounds” (Scientific Reports, 2016).
Read-outs that look alike come from different tables or passages of the source.

How the values were obtained:
SaPDF [1] = target: T1, SaPDF (Streptococcus agalactiae serotype III, UniProt Q8E378, S2A); test: biochemical; conditions: for Ki: SaPDF KI, no pre-incubation, assay initiated by addition of enzyme, 40 nM SaPDF, 37 °C; for SaPDF KI/KI*app: enhancement potency (slow tight-binding)
T1 construct: the recombinant protein contains all residues of the 204 amino acids mature protein; made in house; host or cells: E. coli Rosetta 2(DE3)pLysS
T1 sequence (Q8E378 whole entry S2A): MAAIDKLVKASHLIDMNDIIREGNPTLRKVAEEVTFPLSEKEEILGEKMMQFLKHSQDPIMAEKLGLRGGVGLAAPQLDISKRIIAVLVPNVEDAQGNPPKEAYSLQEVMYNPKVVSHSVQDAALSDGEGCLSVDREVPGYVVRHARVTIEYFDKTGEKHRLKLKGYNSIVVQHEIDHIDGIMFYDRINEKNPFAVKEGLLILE
Description: (§1) Enzymatic activity was measured by a spectrophotometric assay where peptide deformylase activity is coupled to that of formate dehydrogenase. The formate released by the deformylation reaction is used by FDH to convert NAD in NADH, the production of which being measured over time at 340 nm and controlled temperature (37 °C). The 200 μL reaction mixture contained 50 mM HEPES-NaOH pH7.5, 12 mM NAD^+, 4.5 U/mL FDH, 1 mM NiCl2 and PDF enzyme (either 40 nM SaPDF or 10 nM EcPDF or 100 nM AtPDF1B) previously diluted in presence of 0.1 mg/mL BSA. The reaction was started by addition of 1–6 mM Fo-Met-Ala-Ser. Kinetics parameters (kcat, Km) were derived from iterative non-linear least square fits using the Michaelis-menten equation based on the experimental data (Sigma-Plot, Kinetics module).
(§2) 1/KI*app is the slope of the v0/vi curve in function of compound concentration, where v0 and vi are the initial reaction rates in absence and presence of compound, respectively.
(§3) Determination of KI values was performed with a slightly modified protocol: reaction was started by addition of enzyme instead of Fo-Met-Ala-Ser, the latter being directly added to the mixture containing increasing concentrations of each compound. No pre-incubation of enzyme in presence of compound was done. 1/KI is the slope of the v0/vi curve in function of compound concentration, where v0 and vi are the initial reaction rates in absence and presence of compound respectively.

EcPDF = target: T2, EcPDF (Escherichia coli, UniProt P0A6K3); test: PDF inhibition, formate dehydrogenase-coupled spectrophotometric assay (EcPDF); type: biochemical; conditions: for Ki: 10 nM EcPDF; for EcPDF KI/KI*app: enhancement potency (slow tight-binding)
T2 construct: made in house
T2 sequence (P0A6K3 whole entry): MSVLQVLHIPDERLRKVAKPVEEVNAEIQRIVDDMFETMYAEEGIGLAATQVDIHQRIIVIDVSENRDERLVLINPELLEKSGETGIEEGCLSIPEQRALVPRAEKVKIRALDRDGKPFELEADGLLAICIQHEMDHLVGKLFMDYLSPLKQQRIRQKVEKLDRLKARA
Description: as §1, with “The” for “Enzymatic activity was measured by a spectrophotometric assay where peptide deformylase activity is coupled to that of formate dehydrogenase. The”
as §2, §3

AtPDF1B [2] = target: T3, AtPDF1B (Arabidopsis thaliana, UniProt Q9FUZ2); test: PDF inhibition, formate dehydrogenase-coupled spectrophotometric assay (AtPDF1B); type: biochemical; conditions: for IC50 / Ki: 100 nM AtPDF1B; for IC50: 2 mM Fo-Met-Ala-Ser, 10 min pre-incubation at 37 °C; for Ki: PDFI pre-incubated with enzyme 10 min at 37 °C, started by 2 mM Fo-Met-Ala-Ser, read-out: AtPDF1B KI*app; for AtPDF1B KI/KI*app: enhancement potency (slow tight-binding)
T3 construct: made in house
T3 sequence (Q9FUZ2 83-273): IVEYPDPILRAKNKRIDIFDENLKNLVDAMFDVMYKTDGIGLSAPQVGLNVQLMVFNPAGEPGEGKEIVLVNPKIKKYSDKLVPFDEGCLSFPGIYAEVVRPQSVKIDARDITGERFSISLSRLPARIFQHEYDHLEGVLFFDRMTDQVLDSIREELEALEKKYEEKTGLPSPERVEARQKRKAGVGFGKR
Description: as §1, §2, §3

E. coli AG100 = test: MIC by microdilution, E. coli AG100; type: cell-based; conditions: 18 h at 37 °C, average of three assays; for MIC: Escherichia coli, AG100, without PMBN; for MIC AG100: with PMBN at 1/5 of its MIC
Source text: (§4) Two E. coli strains, one B. subtilis strain, one S. aureus strain, one E. faecalis strain, one S. agalactiae strain and three Enterobacter aerogenes strains previously described were used. Briefly, AG100 was an E. coli wild type strain and AG100A its acrAB^- derivative. EA289 was a Kan^s derivative of an E. aerogenes multi-drug resistant (MDR) clinical isolate overexpressing AcrAB-TolC efflux pumps, and EA294 and EA298 its acrAB^- and tolC^- derivatives respectively. Strains were routinely grown at 37 °C on Luria-Bertani (LB) agar or in Mueller-Hinton II broth (MH), supplemented with kanamycine (50 μg.mL^−1) for AG100A, EA294 and EA298.
(§5) MIC values of antibiotics were determined by the microdilution method in liquid MH media in microplates in the absence or presence of chemosensitizers/modulators (e.g. PMBN, PAβN), as previously described. Permeabilization, blocking of efflux pumps, and isolates with different levels of porin or efflux expression were used to assess the involvement of the membrane barrier in antibiotic activity.
(§6) Susceptibilities were determined in 96-wells microplates with an inoculum of 2 × 10^5 cfu in 200 μL of MH broth containing two-fold serial dilutions of each antibiotics or compounds. Molecules were tested alone or in combination with other molecules in equimolar ratio. MICs were realized in the absence and in the presence of a membrane permeabilizer, the polymyxine B nonapeptide (PMBN) used at 51.2 mg/L (1/5 or 1/10 of its direct MIC previously determined). Actinonin and ciprofloxacin were used as internal antibiotic reference. […] Each test was systematically performed in triplicate. The average of three independent assays is presented in μg/mL in the respective tables.

[3] = tested on: E. coli AG100A (AcrAB- derivative); test: MIC by microdilution, E. coli AG100A; type: cell-based; conditions: for MIC: Escherichia coli, 18 h, read-out: MIC AG100A; for MIC AG100A: with PMBN at 1/5 of its MIC, 18 h at 37 °C, average of three assays
Source text: as §4, §5, §6

SaPDF [4] = target: T1, SaPDF; test: biochemical; conditions: SaPDF KI*app, PDFI pre-incubated with enzyme 10 min at 37 °C, started by 2 mM Fo-Met-Ala-Ser; 40 nM SaPDF
AtPDF1B [5] = target: T3, AtPDF1B; test: PDF inhibition, formate dehydrogenase-coupled spectrophotometric assay (AtPDF1B); type: biochemical; conditions: no pre-incubation, assay initiated by addition of enzyme; 100 nM AtPDF1B; 37 °C
[6] = tested on: E. aerogenes Ea289, MDR strain; test: MIC by microdilution, E. aerogenes Ea289; type: cell-based, Enterobacter aerogenes; conditions: for MIC Ea289: +PMBN at 1/5 of its MIC, average of three assays; for MIC: Klebsiella aerogenes, 18 h, read-out: MIC Ea289
Source text: as §4, §5, §6

[7] = tested on: E. aerogenes Ea294, Ea289 derivative AcrAB-; test: MIC by microdilution, E. aerogenes Ea294; type: cell-based, Enterobacter aerogenes; conditions: for MIC Ea294: +PMBN at 1/5 of its MIC, average of three assays; for MIC: Klebsiella aerogenes, 18 h, read-out: MIC Ea294
Source text: as §4, §5, §6

[8] = tested on: E. aerogenes Ea298, Ea289 derivative tolC-; test: MIC by microdilution, E. aerogenes Ea298; type: cell-based, Enterobacter aerogenes; conditions: for MIC Ea298: +PMBN at 1/5 of its MIC, average of three assays; for MIC: Klebsiella aerogenes, 18 h, read-out: MIC Ea298
Source text: as §4, §5, §6

S. aureus SA113 = test: MIC, S. aureus SA113; type: cell-based; conditions: Staphylococcus aureus
Source text: as §4, §5, §6

E. faecalis EFA 103.214 = test: MIC, E. faecalis EFA 103.214; type: cell-based; conditions: Enterococcus faecalis, EFA103.214, read-out: MIC E. faecalis EFA 103.214
Source text: as §4, §5, §6

[9] = EcPDF KI*app, PDFI pre-incubated with enzyme 10 min at 37 °C, started by 2 mM Fo-Met-Ala-Ser
[10] = EcPDF KI, no pre-incubation, assay initiated by addition of enzyme, 37 °C

Row | Compound | IC50 (SaPDF [1]) | Ki (SaPDF [1]) | SaPDF KI/KI*app (SaPDF [1]) | IC50 (EcPDF) | Ki (EcPDF; [9]) | Ki (EcPDF; [10]) | EcPDF KI/KI*app (EcPDF) | IC50 (AtPDF1B [2]) | Ki (AtPDF1B [2]) | MIC (E. coli AG100) | MIC AG100 (E. coli AG100) | MIC [3] | MIC AG100A [3] | Ki (SaPDF [4]) | MIC Ea289 [6] | MIC [6] | MIC Ea294 [7] | MIC [7] | MIC Ea298 [8] | MIC [8] | also measured
1 | O=C(Cc1c[nH]c2ccc(Br)cc12)NO [AB47] | 63 ± 6 nM | 62 ± 3 nM | 1 | 37 ± 5 nM | 39 ± 2 nM | 47 ± 2 nM | 1 | 360 ± 31 nM | 400 ± 35 nM | > 64 µg/mL | 64 µg/mL | 64 µg/mL | 32 µg/mL | 73 ± 5 nM |  |  |  |  |  |  | AtPDF1B KI/KI*app (AtPDF1B [2]): 1; Ki (AtPDF1B [5]): 455 ± 89 nM
2 | CCCCC(CC(=O)NO)c1nc(-c2ccc(C(F)(F)F)cc2)no1 (stereo not drawn) [AT011] | 128 ± 32 nM | 400 ± 20 nM | 1 | 215 ± 17 nM | 333 ± 13 nM |  |  | 6000 nM | 5000 nM | > 64 µg/mL | 8 µg/mL | 32 µg/mL | 4 µg/mL | 430 ± 39 nM | 64 µg/mL | > 128 µg/mL | 16 µg/mL | 128 µg/mL | 16 µg/mL | 128 µg/mL | MIC (S. aureus SA113): > 64 µg/mL; MIC (E. faecalis EFA 103.214): > 64 µg/mL
3 | CCCC[C@H](CC(=O)NO)c1nc(Cc2ccc(OC(F)(F)F)cc2)no1 [AT013] | 11 ± 1 nM | 70 ± 5 nM | 1 | 78 ± 11 nM | 80 ± 10 nM | 73 ± 12 nM | 1 | 500 ± 15 nM | 303 ± 12 nM | > 64 µg/mL | 16 µg/mL | 32 µg/mL | 4 µg/mL | 51 ± 3 nM | 64 µg/mL | > 128 µg/mL | 16 µg/mL | > 128 µg/mL | 16 µg/mL | 128 µg/mL | MIC (S. aureus SA113): > 64 µg/mL; MIC (E. faecalis EFA 103.214): > 64 µg/mL
4 | CCCC[C@H](CC(=O)NO)c1nc(Cc2coc3ccccc23)no1 [AT015] | 20 ± 3 nM | 166 ± 12 nM | 1 | 17 ± 2 nM | 10 ± 2 nM | 35 ± 5 nM | 3 | 300 ± 12 nM | 1100 nM | > 64 µg/mL | 16 µg/mL | 32 µg/mL | 2 µg/mL | 122 ± 13 nM | 128 µg/mL | > 128 µg/mL | 16 µg/mL | > 128 µg/mL | 8 µg/mL | 128 µg/mL | MIC (S. aureus SA113): > 64 µg/mL; MIC (E. faecalis EFA 103.214): > 64 µg/mL
5 | CCCCC(CC(=O)NO)c1nc(Cc2ccc(C(=O)OC)cc2)no1 (stereo not drawn) [AT018] | 20 ± 1 nM | 38 ± 6 nM | 2 | 20 ± 2 nM | 12 ± 1 nM | 49 ± 3 nM | 4 | 650 ± 20 nM | 833 ± 10 nM | > 64 µg/mL | 64 µg/mL | > 64 µg/mL | 16 µg/mL | 18 ± 1 nM |  |  |  |  |  |  | AtPDF1B KI/KI*app (AtPDF1B [2]): 1; Ki (AtPDF1B [5]): 1110 ± 100 nM
6 | O=C(O)c1cn(C2CC2)c2cc(N3CCNCC3)c(F)cc2c1=O [Ciprofloxacin, ciprofloxacin, reference compound] |  |  |  |  |  |  |  |  |  |  |  |  |  |  | 64 µg/mL | 64 µg/mL | 8 µg/mL | 16 µg/mL | 4 µg/mL | 8 µg/mL | 
7 | CC(C)(C)OC(=O)N[C@@H](Cc1ccccc1)CN(O)C=O [RAS358] | 150 ± 12 nM | 1430 ± 125 nM | 3 | 110 ± 10 nM | 164 ± 40 nM | 833 ± 30 nM | 5 | 251 ± 15 nM | 400 ± 37 nM |  |  |  |  | 454 ± 29 nM |  |  |  |  |  |  | AtPDF1B KI/KI*app (AtPDF1B [2]): 5; Ki (AtPDF1B [5]): 2000 ± 150 nM
